Patent publication US7737155B2, “Nitrogen-containing heterocyclic compounds and methods of use thereof” (Schering Corporation, priority 2005, dated 2010)

biological target: recombinant human nicotinic acid receptor (NAR) (Homo sapiens, UniProt Q8TDS4); assay: Nicotinic Acid Receptor Assay: inhibition of forskolin-stimulated cAMP accumulation in CHO cells (MesoScale Discovery cAMP kit); format: cell-based; conditions: CHO cells expressing recombinant human NAR; forskolin-stimulated cAMP; read-out: NA EC50 camp
Sequence (Q8TDS4 whole entry): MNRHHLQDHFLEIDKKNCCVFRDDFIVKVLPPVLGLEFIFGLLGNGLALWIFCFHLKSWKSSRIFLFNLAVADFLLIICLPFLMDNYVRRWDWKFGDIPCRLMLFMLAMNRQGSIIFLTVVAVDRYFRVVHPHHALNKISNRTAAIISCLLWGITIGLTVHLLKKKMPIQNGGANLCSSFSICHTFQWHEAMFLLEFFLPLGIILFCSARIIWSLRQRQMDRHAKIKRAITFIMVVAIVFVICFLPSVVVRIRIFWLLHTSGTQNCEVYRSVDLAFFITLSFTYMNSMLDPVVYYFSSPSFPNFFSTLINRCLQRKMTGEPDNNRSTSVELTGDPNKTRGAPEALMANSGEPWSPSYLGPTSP
How it was run: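 Compounds were diluted in PBS containing 6 μM forskolin and incubated with cells for 30 min at room temperature. cAMP was quantified by the MesoScale kit against an on-plate standard curve.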

Row | Structure (SMILES) | EC50
1 | COCC#CCOc1nc2oc(=O)cc(Cc3cccc(F)c3)c2c(=O)[nH]1 [Compound 684] | 0.001 to 100 nM
2 | CCCOCCCc1cc(=O)oc2[nH]c(=O)[nH]c(=O)c12 [Compound 270] | 0.001 to 100 nM
3 | CCc1cc(=O)oc2nc(OCCOc3ccccc3F)[nH]c(=O)c12 [Compound 614] | 100 to 1000 nM
4 | O=c1[nH]c(=O)c2c(CCC3CCC3)c(-c3ccc(F)cc3)c(=O)oc2[nH]1 [Compound 700] | > 1000 nM
5 | CCc1cc(=O)oc2nc(OCc3ccc(Cl)c(C(F)(F)F)c3)[nH]c(=O)c12 [Compound 521] | 100 to 1000 nM
6 | Cn1c(=O)[nH]c2oc(=O)cc(CCC3CC3)c2c1=O [Compound 276] | 100 to 1000 nM
7 | COCC#CCOc1nc2oc(=O)cc(Cc3ccc(F)cc3)c2c(=O)[nH]1 [Compound 661] | 100 to 1000 nM
8 | CCCCCCc1cc(=O)oc2nc(ONC(=O)OCC)[nH]c(=O)c12 [Compound 692] | 0.001 to 100 nM
9 | O=c1[nH]c(=O)c2c(CC3CC3)cc(=O)oc2[nH]1 [Compound 206] | 100 to 1000 nM
10 | CCc1cc(=O)oc2nc(OCc3ccccc3-c3cccc(Cl)c3)[nH]c(=O)c12 [Compound 554] | > 1000 nM
11 | CCc1cc(=O)oc2nc(OC[C@@H](OC)c3ccccc3)[nH]c(=O)c12 [Compound 618] | 100 to 1000 nM
12 | CCc1cc(=O)oc2nc(OCc3ccc(C)cc3C)[nH]c(=O)c12 [Compound 504] | 100 to 1000 nM
13 | CCc1cc(=O)oc2nc(OCc3csc(-c4cccs4)n3)[nH]c(=O)c12 [Compound 541] | 100 to 1000 nM
14 | CCCCc1cc(=O)oc2nc(OCCOC)[nH]c(=O)c12 [Compound 660] | > 1000 nM
15 | CCc1cc(=O)oc2nc(OCC[Si](C)(C)C)[nH]c(=O)c12 [Compound 637] | 100 to 1000 nM
16 | CCc1cc(=O)oc2nc(OCC#CCN(C)C)[nH]c(=O)c12 [Compound 641] | 0.001 to 100 nM
17 | CCCCc1c(-c2ccc(F)cc2)c(=O)oc2[nH]c(=O)[nH]c(=O)c12 [Compound 706] | > 1000 nM
18 | CCc1cc(=O)oc2nc(OCC#CCOC)[nH]c(=O)c12 [Compound 636] | 100 to 1000 nM
19 | CCc1c(-c2ccccc2)c(=O)oc2[nH]c(=O)n(C3CCC3)c(=O)c12 [Compound 203] | > 1000 nM
20 | O=c1[nH]c(=O)c2c(CCC3CCC3)c(-c3ccccc3)c(=O)oc2[nH]1 [Compound 699] | > 1000 nM
21 | CCc1cc(=O)oc2nc(O[C@H](C)c3ccc4ccccc4c3)[nH]c(=O)c12 [Compound 500] | 100 to 1000 nM
22 | CCc1cc(=O)oc2nc(OCc3cc4ccccc4s3)[nH]c(=O)c12 [Compound 538] | 100 to 1000 nM
23 | CC(C)(C)OC(=O)N1CCC(Cc2cc(=O)oc3[nH]c(=O)[nH]c(=O)c23)CC1 [Compound 221] | > 1000 nM
24 | CSCCCc1cc(=O)oc2[nH]c(=O)[nH]c(=O)c12 [Compound 225] | 0.001 to 100 nM

Row | Structure (SMILES) | EC50
25 | O=c1[nH]c(=O)c2c(Cc3cccc4ccccc34)cc(=O)oc2[nH]1 [Compound 265] | > 1000 nM
26 | CCOC(=O)NOc1nc2oc(=O)cc(CCC3CCC3)c2c(=O)[nH]1 [Compound 691] | 0.001 to 100 nM
27 | CCc1cc(=O)oc2nc(OCCS(=O)(=O)c3ccc(Cl)cc3)[nH]c(=O)c12 [Compound 591] | 0.001 to 100 nM
28 | CCc1cc(=O)oc2nc(OCc3ccncc3F)[nH]c(=O)c12 [Compound 625] | 100 to 1000 nM
29 | CCc1cc(=O)oc2nc(OCc3cc(-c4ccccc4Cl)no3)[nH]c(=O)c12 [Compound 640] | 100 to 1000 nM
30 | CCc1cc(=O)oc2nc(OCCN3CCOC3=O)[nH]c(=O)c12 [Compound 620] | > 1000 nM
31 | CCc1cc(=O)oc2nc(OCc3conc3C)[nH]c(=O)c12 [Compound 665] | > 1000 nM
32 | O=c1cc(CCC2CCCC2)c2c(=O)n(C3CCC3)c(=O)[nH]c2o1 [Compound 241] | 0.001 to 100 nM
33 | CCc1cc(=O)oc2nc(OCc3cnco3)[nH]c(=O)c12 [Compound 657] | > 1000 nM
34 | CC(C)(C#N)CCCc1cc(=O)oc2[nH]c(=O)[nH]c(=O)c12 [Compound 288] | > 1000 nM
35 | Cc1cccc(COc2nc3oc(=O)cc(Cc4ccccc4)c3c(=O)[nH]2)n1 [Compound 609] | > 1000 nM
36 | O=c1[nH]c(=O)c2c(Cc3ccc(-c4ccccc4F)cc3)cc(=O)oc2[nH]1 [Compound 205] | 100 to 1000 nM
37 | CCc1cc(=O)oc2nc(OCC#CC(C)O)[nH]c(=O)c12 (stereo not drawn) [Compound 644] | 0.001 to 100 nM
38 | O=c1cc(CCCc2cccs2)c2c(=O)n(C3CCC3)c(=O)[nH]c2o1 [Compound 281] | 100 to 1000 nM
39 | CCn1c(=O)[nH]c(=O)c2c(CCC3CC3)cc(=O)oc21 [Compound 277] | > 1000 nM
40 | CCc1cc(=O)oc2nc(OCCS(C)(=O)=O)[nH]c(=O)c12 [Compound 588] | > 1000 nM
41 | CCc1cc(=O)oc2nc(OCc3nccc4ccccc34)[nH]c(=O)c12 [Compound 528] | 100 to 1000 nM
42 | O=c1[nH]c(=O)c2c(CC3Cc4ccccc4C3)cc(=O)oc2[nH]1 [Compound 202] | 100 to 1000 nM
43 | CCc1cc(=O)oc2nc(OCCOc3ccc(Br)cc3)[nH]c(=O)c12 [Compound 600] | > 1000 nM
44 | CCc1cc(=O)oc2nc(OCc3ccc(Cl)cc3OC)[nH]c(=O)c12 [Compound 515] | 100 to 1000 nM
45 | CCc1cc(=O)oc2nc(OCC(=O)c3ccccc3)[nH]c(=O)c12 [Compound 603] | 100 to 1000 nM
46 | CCc1cc(=O)oc2nc(OCc3cccc(C(F)(F)F)n3)[nH]c(=O)c12 [Compound 568] | 100 to 1000 nM
47 | CCc1cc(=O)oc2nc(OCCOC3CCCCC3)[nH]c(=O)c12 [Compound 610] | > 1000 nM
48 | CCC(CC)CCc1cc(=O)oc2[nH]c(=O)[nH]c(=O)c12 [Compound 269] | 100 to 1000 nM

Row | Structure (SMILES) | EC50
49 | O=c1cc(Cc2ccccc2)c2c(=O)[nH]c(OCc3ccccc3)nc2o1 [Compound 627] | > 1000 nM
50 | CCc1cc(=O)oc2nc(OCC#CCCOC)[nH]c(=O)c12 [Compound 664] | 100 to 1000 nM
51 | CCc1cc(=O)oc2nc(OCc3cccc(-c4ccc(OC)c(OC)c4)c3)[nH]c(=O)c12 [Compound 565] | 100 to 1000 nM
52 | CC(C)CCc1cc(=O)oc2c1c(=O)[nH]c(=O)n2CC1CC1 [Compound 259] | > 1000 nM
53 | CCc1cc(=O)oc2nc(OCCN(C)C)[nH]c(=O)c12 [Compound 652] | 0.001 to 100 nM
54 | CCc1cc(=O)oc2nc(OCc3cc(F)cc(F)c3)[nH]c(=O)c12 [Compound 506] | > 1000 nM
55 | CC1(CCCc2cc(=O)oc3[nH]c(=O)n(C4CCC4)c(=O)c23)CC1 [Compound 285] | 100 to 1000 nM
56 | O=c1[nH]c(=O)c2c(CCc3cccs3)cc(=O)oc2[nH]1 [Compound 229] | 0.001 to 100 nM
57 | CCOCCCc1cc(=O)oc2[nH]c(=O)[nH]c(=O)c12 [Compound 239] | 0.001 to 100 nM
58 | CC1(CCc2cc(=O)oc3[nH]c(=O)[nH]c(=O)c23)CC1 [Compound 272] | 100 to 1000 nM
59 | CCCCc1c(-c2ccccc2)c(=O)oc2[nH]c(=O)[nH]c(=O)c12 [Compound 292] | 100 to 1000 nM
60 | CCc1cc(=O)oc2nc(OCCOC3CCCC3)[nH]c(=O)c12 [Compound 606] | > 1000 nM
61 | CCCCc1c(-c2ccc(NC(C)=O)cc2)c(=O)oc2[nH]c(=O)[nH]c(=O)c12 [Compound 710] | > 1000 nM
62 | CCc1cc(=O)oc2nc(OCc3ccncc3NC(=O)C(C)(C)C)[nH]c(=O)c12 [Compound 659] | > 1000 nM
63 | CCc1cc(=O)oc2nc(OCc3cccc(-c4cccc5cccnc45)c3)[nH]c(=O)c12 [Compound 560] | > 1000 nM
64 | CCc1cc(=O)oc2nc(OCc3ccccc3-c3ccc(CO)cc3)[nH]c(=O)c12 [Compound 548] | 100 to 1000 nM
65 | CCc1cc(=O)oc2nc(OCC(N)=O)[nH]c(=O)c12 [Compound 582] | 100 to 1000 nM
66 | CC#CCCc1cc(=O)oc2[nH]c(=O)[nH]c(=O)c12 [Compound 217] | > 1000 nM
67 | CCc1cc(=O)oc2nc(OCc3ncoc3-c3ccccc3)[nH]c(=O)c12 [Compound 540] | 100 to 1000 nM
68 | CC1CC1CCc1cc(=O)oc2[nH]c(=O)[nH]c(=O)c12 (stereo not drawn) [Compound 295] | 100 to 1000 nM
69 | CCc1cc(=O)oc2nc(OCc3snnc3-c3ccccc3)[nH]c(=O)c12 [Compound 532] | 100 to 1000 nM
70 | CCc1cc(=O)oc2nc(OCc3cccc(-c4ccccc4Cl)c3)[nH]c(=O)c12 [Compound 564] | 100 to 1000 nM
71 | CC(C)(C)Cc1cc(=O)oc2[nH]c(=O)[nH]c(=O)c12 [Compound 240] | > 1000 nM
72 | CCc1cc(=O)oc2nc(OCc3ccc(-c4ccccc4)cc3)[nH]c(=O)c12 [Compound 517] | > 1000 nM

same assay, conditions: NA EC50 camp (nM), CHO cells expressing recombinant human NAR; forskolin-stimulated cAMP

Row | Structure (SMILES) | EC50
73 | CC#CCCOc1nc2oc(=O)cc(CC)c2c(=O)[nH]1 [Compound 590] | 100 to 1000 nM

same assay, conditions: inhibition of forskolin-stimulated cAMP accumulation, CHO cells expressing recombinant human NAR; read-out: NA EC50 camp

Row | Structure (SMILES) | EC50
74 | CCc1cc(=O)oc2nc(OCC#CCCOC)[nH]c(=O)c12 [Compound 726] | 219 nM
75 | COCCn1c(=O)[nH]c(=O)c2c(CCC3CC3)cc(=O)oc21 [Compound 801] | > 10000 nM
76 | CC#CCOc1nc2oc(=O)cc(CCCC3CC3)c2c(=O)[nH]1 [Compound 717] | 259 nM
77 | CCCCc1cc(=O)oc2[nH]c(=O)n(OCc3ccccc3)c(=O)c12 [Compound 799] | > 10000 nM
78 | C#CCCCc1cc(=O)oc2[nH]c(=O)[nH]c(=O)c12 [Compound 128] | 6.3 nM
79 | CCOC(=O)NOc1nc2oc(=O)cc(CCC3CCC3)c2c(=O)[nH]1 [Compound 691] | 47.5 nM
80 | CCOc1nc(=O)[nH]c2oc(=O)cc(CCC3CCC3)c12 [Compound 786] | 5330 nM
81 | O=c1cc(CCC2CCCC2)c2c(=O)n(C3CCC3)c(=O)[nH]c2o1 [Compound 241] | 13 nM
82 | CCCCc1cc(=O)oc2c1c(=O)[nH]c(=O)n2OCC [Compound 778] | 9150 nM
83 | CCc1cc(=O)oc2nc(OCC#CC(C)O)[nH]c(=O)c12 (stereo not drawn) [Compound 729] | 49.9 nM
84 | O=c1nc(OCC(F)F)c2c(CCCC3CC3)cc(=O)oc2[nH]1 [Compound 831] | 531 nM
85 | O=c1cc(CCC2CC2)c2c(=O)n(C3CCC3)c(=O)[nH]c2o1 [Compound 780] | 36 nM
86 | O=c1cc(CCC2CCCC2)c2c(=O)[nH]c(CF)nc2o1 [Compound 747] | 1230 nM
87 | CCCCc1c(-c2ccccc2)c(=O)oc2[nH]c(=O)[nH]c(=O)c12 [Compound 292] | 300 nM
88 | CCn1c(=O)[nH]c2oc(=O)cc(CCC3CCCC3)c2c1=O [Compound 781] | 68 nM
89 | CCCc1cc(=O)oc2[nH]c(=O)nc(OCCF)c12 [Compound 825] | 616 nM
90 | O=c1[nH]c(=O)c2c(Cc3ccsc3)cc(=O)oc2[nH]1 [Compound 135] | 4.8 nM
